Measured values reported in ChEMBL document CHEMBL4346765, “Design, synthesis and biological evaluation of novel dithiocarbamate-substituted diphenylaminopyrimidine derivatives as BTK inhibitors” (Bioorg Med Chem, 2019).

Key:
[1] = tested on: Ramos; assay: Antiproliferative activity against human Ramos cells assessed as reduction in cell growth incubated for 48 hrs by MTS assay
[2] = tested on: Raji; assay: Antiproliferative activity against human Raji cells assessed as reduction in cell growth incubated for 48 hrs by MTS assay
[3] = target: Tyrosine-protein kinase BTK (Homo sapiens, UniProt Q06187); assay: Inhibition of human recombinant full length BTK expressed in baculovirus in Sf9 insect cells using Poly (4:1 Glu, Tyr) as substrate incubated for 1 hr by ADP-Glo assay
Chain of Tyrosine-protein kinase BTK (Q06187 whole entry): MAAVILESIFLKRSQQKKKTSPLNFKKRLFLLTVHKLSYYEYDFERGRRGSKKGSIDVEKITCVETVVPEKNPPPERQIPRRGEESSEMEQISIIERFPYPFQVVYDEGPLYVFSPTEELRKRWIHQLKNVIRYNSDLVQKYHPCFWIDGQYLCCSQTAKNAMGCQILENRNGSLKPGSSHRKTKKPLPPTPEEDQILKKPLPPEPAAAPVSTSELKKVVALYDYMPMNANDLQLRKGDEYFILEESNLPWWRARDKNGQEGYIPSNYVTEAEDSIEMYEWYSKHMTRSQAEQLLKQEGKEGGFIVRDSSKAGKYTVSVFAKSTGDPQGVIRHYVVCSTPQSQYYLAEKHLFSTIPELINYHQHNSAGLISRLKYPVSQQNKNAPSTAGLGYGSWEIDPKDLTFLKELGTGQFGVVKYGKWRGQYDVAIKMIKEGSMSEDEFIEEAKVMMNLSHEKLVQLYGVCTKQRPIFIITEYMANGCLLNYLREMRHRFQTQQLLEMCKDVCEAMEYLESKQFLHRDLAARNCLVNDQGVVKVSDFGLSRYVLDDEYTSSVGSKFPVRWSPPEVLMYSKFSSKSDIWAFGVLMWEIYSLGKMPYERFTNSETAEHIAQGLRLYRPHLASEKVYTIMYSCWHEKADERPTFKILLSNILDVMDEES

Row | IC50 [1] [µM] | IC50 [2] [µM] | IC50 [3] [µM] | Compound
1 | 2.73 | 4.84 | 0.0307 | C=CC(=O)Nc1cccc(Nc2nc(Nc3ccc(OCCSC(=S)N(C)Cc4cccnc4)cc3)ncc2F)c1
2 | 3.74 | 7.76 | 0.0683 | C=CC(=O)Nc1cccc(Nc2nc(Nc3ccc(OCCSC(=S)N4CCN(CCO)CC4)cc3)ncc2F)c1
3 | > 40 | > 40 | 0.241 | C=CC(=O)Nc1cccc(Nc2nc(Nc3ccc(OCCSC(=S)N(CCC)CCC)cc3)ncc2F)c1
4 | 4.36 | 4.98 | 0.0139 | C=CC(=O)Nc1cccc(Nc2nc(Nc3ccc(OCCCSC(=S)N(C)C)cc3)ncc2F)c1
5 | 1.49 | 1.05 | 0.0165 | C=CC(=O)Nc1cccc(Nc2nc(Nc3ccc(OCCCCSC(=S)NCc4cccnc4)cc3)ncc2F)c1
6 | 2.97 | 15.3 | 0.154 | C=CC(=O)Nc1cccc(Nc2nc(Nc3ccc(OCCSC(=S)N4CCCC4)cc3)ncc2F)c1
7 | 2.87 | 4.24 | 0.0299 | C=CC(=O)Nc1cccc(Nc2nc(Nc3ccc(OCCSC(=S)N4CCOCC4)cc3)ncc2F)c1
8 | 1.03 | 1.22 | 0.00858 | C=CC(=O)Nc1cccc(Nc2nc(Nc3ccc(OCCSC(=S)NCc4ccc(C#N)cc4)cc3)ncc2F)c1
9 | 2.92 | 4.45 | 0.131 | C=CC(=O)Nc1cccc(Nc2nc(Nc3ccc(OCCCCSC(=S)N4CCN(C(C)C)CC4)cc3)ncc2F)c1
10 | 1.42 | 1.02 | 0.00239 | C=CC(=O)Nc1cccc(Nc2nc(Nc3ccc(OCCCSC(=S)NCc4cccnc4)cc3)ncc2F)c1
11 | > 40 | > 40 | > 0.5 | C=CC(=O)Nc1cccc(Nc2nc(Nc3ccc(OCCSC(=S)N4CCc5ccccc5C4)cc3)ncc2F)c1
12 | 7.65 | 13.4 | 0.0836 | C=CC(=O)Nc1cccc(Nc2nc(Nc3ccc(OCCSC(=S)N4CCCCC4)cc3)ncc2F)c1
13 | 2.07 | > 40 | 0.283 | C=CC(=O)Nc1cccc(Nc2nc(Nc3ccc(OCCSC(=S)N4CCN(Cc5ccccc5)CC4)cc3)ncc2F)c1
14 | 3.44 | 8.64 | 0.015 | C=CC(=O)Nc1cccc(Nc2nc(Nc3ccc(OCCSC(=S)NCC)cc3)ncc2F)c1
15 | 2.25 | 0.561 | 0.0486 | C=CC(=O)Nc1cccc(Nc2nc(Nc3ccc(OCCSC(=S)NCc4cc(OC)c(OC)c(OC)c4)cc3)ncc2F)c1
16 | 4.42 | 6.57 | 0.00849 | C=CC(=O)Nc1cccc(Nc2nc(Nc3ccc(OCCSC(=S)NCc4cnccn4)cc3)ncc2F)c1
17 | 1.02 | 3.93 | 0.0569 | C=CC(=O)Nc1cccc(Nc2nc(Nc3ccc(OCCSC(=S)N4CCN(C(C)C)CC4)cc3)ncc2F)c1
18 | 2.76 | 3.53 | 0.0803 | C=CC(=O)Nc1cccc(Nc2nc(Nc3ccc(OCCSC(=S)N4CCN(C(C)=O)CC4)cc3)ncc2F)c1
19 | 1.9 | 3.9 | 0.0356 | C=CC(=O)Nc1cccc(Nc2nc(Nc3ccc(OCCSC(=S)N4CCN(C)CC4)cc3)ncc2F)c1
20 | 9.53 | 13.8 | 0.00144 | C=CC(=O)Nc1cccc(Nc2nc(Nc3ccc(OCCSC(=S)N(C)C)cc3)ncc2F)c1
21 | 9.21 | 20.9 | 0.125 | C=CC(=O)Nc1cccc(Nc2nc(Nc3ccc(OCCSC(=S)N(CCCC)CCCC)cc3)ncc2F)c1
22 | 5.09 | 6.29 | 0.0025 | C=CC(=O)Nc1cccc(Nc2nc(Nc3ccc(OCCSC(=S)NC4CC4)cc3)ncc2F)c1
23 | 1.24 | 1.15 | 0.0069 | C=CC(=O)Nc1cccc(Nc2nc(Nc3ccc(OCCSC(=S)NCc4cccc(F)c4)cc3)ncc2F)c1

Row | Compound | IC50 [1] [µM] | IC50 [2] [µM] | IC50 [3] [µM]
24 | C=CC(=O)N1CCC[C@@H](n2nc(-c3ccc(Oc4ccccc4)cc3)c3c(N)ncnc32)C1 [IBRUTINIB] | 1.88 | 17.7 | 
